Here are results for one compound from ChEMBL document CHEMBL1914399 (Bioorg Med Chem Lett, 2011).

The nature of the series: Apparent permeability across apical to basolateral side of dog MDCK cells at 50 uM measured every 15 mins for 1.5 hrs by LC-MS/MS analysis. In kind it is ADME, cell-based, Canis lupus familiaris.

The term Papp A→B denotes the apparent permeability from the apical to the basolateral side of a cell layer. In the case of `COCCc1ccc(OCC(O)CNC(C)C)cc1` (stereo unspecified) [METOPROLOL], the Papp A→B at 1.5 h, 50 µM was found to be 15.6 ×10⁻⁶ cm/s.
